Assay [1] deals with A549. The assay can be described thus: Cytotoxicity against human A549 cells after 48 hrs by sulforhodamine B assay. The assay is classed as functional. The settings on record: A549, 48 h, read-out: ED50 (the source's name). In general terms: Sulforhodamine B stains cellular protein and so reports cell mass.
Assay [2] relates to SK-OV-3. Kind of assay: Cytotoxicity against human SKOV3 cells after 48 hrs by sulforhodamine B assay. The format is functional. The settings on record: SK-OV-3, 48 h, read-out: ED50 (the source's name).
The subject of assay [3] is SK-MEL-2. The assay can be described thus: Cytotoxicity against human SK-MEL-2 cells after 48 hrs by sulforhodamine B assay. The format is functional. To be noted: SK-MEL-2, 48 h, read-out: ED50 (the source's name).
Assay [4] relates to XF498. The assay can be described thus: Cytotoxicity against human XF498 cells after 48 hrs by sulforhodamine B assay. The format is functional. The settings on record: XF498, 48 h, read-out: ED50 (the source's name).
Assay [5] concerns HCT-15. The assay can be described thus: Cytotoxicity against human HCT15 cells after 48 hrs by sulforhodamine B assay. The assay is classed as functional. The settings on record: HCT-15, 48 h, read-out: ED50 (the source's name).
The test system of assay [6] is Streptococcus pyogenes. Kind of assay: Antibacterial activity against […] resistant Streptococcus pyogenes 308A at 100 ug/ml after 18 hrs by serial dilution. The format is functional, organism-based.
The subject of assay [7] is Streptococcus pyogenes. The assay can be described thus: Antibacterial activity against […] resistant Streptococcus pyogenes 77A at 100 ug/ml after 18 hrs by serial dilution. The format is functional, organism-based.
Assay [8] has as its system Enterococcus faecium. The assay can be described thus: Antibacterial activity against […] resistant Streptococcus faecium MD 8b at 100 ug/ml after 18 hrs by serial dilution. The format is functional, organism-based.
For assay [9], the system named is Staphylococcus aureus. Kind of assay: Antibacterial activity against […] resistant Staphylococcus aureus SG 511 at 100 ug/ml after 18 hrs by serial dilution. The assay is classed as functional, organism-based.
The subject of assay [10] is Staphylococcus aureus. The assay can be described thus: Antibacterial activity against methicillin resistant Staphylococcus aureus 285 at 100 ug/ml after 18 hrs by serial dilution. The assay is classed as functional, organism-based.
Assay [11] has as its system Staphylococcus aureus. The assay can be described thus: Antibacterial activity against methicillin resistant Staphylococcus aureus 503 at 100 ug/ml after 18 hrs by serial dilution. The format is functional, organism-based.
The subject of assay [12] is Escherichia coli. Kind of assay: Antibacterial activity against […] resistant Escherichia coli 078 at 100 ug/ml after 18 hrs by serial dilution. The assay is classed as functional, organism-based.
For assay [13], the system named is Escherichia coli. The assay can be described thus: Antibacterial activity against […] resistant Escherichia coli DC 0 at 100 ug/ml after 18 hrs by serial dilution. The format is functional, organism-based.
In assay [14] the test system is Escherichia coli. Kind of assay: Antibacterial activity against […] resistant Escherichia coli DC 2 at 100 ug/ml after 18 hrs by serial dilution. The assay is classed as functional, organism-based.
For assay [15], the system named is Escherichia coli. Kind of assay: Antibacterial activity against […] resistant Escherichia coli TEM at 100 ug/ml after 18 hrs by serial dilution. The assay is classed as functional, organism-based.
The test system of assay [16] is Escherichia coli. Kind of assay: Antibacterial activity against […] resistant Escherichia coli 1507E at 100 ug/ml after 18 hrs by serial dilution. The format is functional, organism-based.
In assay [17] the test system is Pseudomonas aeruginosa. The assay can be described thus: Antibacterial activity against […] resistant Pseudomonas aeruginosa 9027 at 100 ug/ml after 18 hrs by serial dilution. The assay is classed as functional, organism-based.
The test system of assay [18] is Pseudomonas aeruginosa. The assay can be described thus: Antibacterial activity against […] resistant Pseudomonas aeruginosa 1592E at 100 ug/ml after 18 hrs by serial dilution. The assay is classed as functional, organism-based.
In assay [19] the test system is Pseudomonas aeruginosa. The assay can be described thus: Antibacterial activity against […] resistant Pseudomonas aeruginosa 1771 at 100 ug/ml after 18 hrs by serial dilution. The assay is classed as functional, organism-based.
Assay [20] deals with Pseudomonas aeruginosa. The assay can be described thus: Antibacterial activity against […] resistant Pseudomonas aeruginosa 1771M at 100 ug/ml after 18 hrs by serial dilution. The assay is classed as functional, organism-based.
Assay [21] has as its system Salmonella enterica. Kind of assay: Antibacterial activity against […] resistant Salmonella Typhimurium at 100 ug/ml after 18 hrs by serial dilution. The format is functional, organism-based. The settings on record: Salmonella enterica subsp. enterica serovar Typhimurium.
The subject of assay [22] is Klebsiella oxytoca. The assay can be described thus: Antibacterial activity against […] resistant Klebsiella oxytoca 1082E at 100 ug/ml after 18 hrs by serial dilution. The assay is classed as functional, organism-based.
Assay [23] has as its system Klebsiella aerogenes. Kind of assay: Antibacterial activity against […] resistant Klebsiella aerogenes 1522E at 100 ug/ml after 18 hrs by serial dilution. The format is functional, organism-based.
The test system of assay [24] is Enterobacter cloacae. The assay can be described thus: Antibacterial activity against […] resistant Enterobacter cloacae P 99 at 100 ug/ml after 18 hrs by serial dilution. The assay is classed as functional, organism-based.
The test system of assay [25] is Enterobacter cloacae. The assay can be described thus: Antibacterial activity against […] resistant Enterobacter cloacae 1321E at 100 ug/ml after 18 hrs by serial dilution. The assay is classed as functional, organism-based.
In assay [26] the test system is RAW264.7. The assay can be described thus: Antiinflammatory activity in mouse RAW264.7 cells assessed as inhibition of NO production at 100 ug/ml. The assay is classed as functional, cell-based.
In assay [27] the test system is RAW264.7. The assay can be described thus: Antiinflammatory activity in mouse RAW264.7 cells assessed as inhibition of IL-6 production at 100 ug/ml. The format is functional, cell-based.
The test system of assay [28] is RAW264.7. The assay can be described thus: Antiinflammatory activity in mouse RAW264.7 cells assessed as inhibition of TNFalpha production at 100 ug/ml. The format is functional, cell-based.

Values after ≈ are worked out from the molar mass of the structure shown. Active and inactive are the calls of the source. No cut-off for these calls is given here.

On to `COC(=O)/C=C/C=C/[C@@H]1[C@@H]2CCC[C@H]2C=C[C@H]1/C=C/C=C/CCCC(=O)NCCC(=O)NCCc1c[nH]c2ccccc12` [APLIDIC ACID AMIDE A], for which the EC50 in assay [1] came to 17.5 µg/mL (≈ 30 µM); in assay [2] it was 17.2 µg/mL (≈ 29.5 µM); in [3], 11.7 µg/mL (≈ 20 µM); in [4], 15.6 µg/mL (≈ 26.7 µM); in [5], 13.5 µg/mL (≈ 23.1 µM).

In the case of `COC(=O)/C=C/C=C/[C@@H]1[C@@H]2CCC[C@H]2C=C[C@H]1/C=C/C=C/CCCC(=O)O` [APLIDIC ACID A], the EC50 is 25.2 µg/mL (≈ 68 µM) in assay [1]; 15.2 µg/mL (≈ 41 µM) in assay [2]; 11.6 µg/mL (≈ 31.3 µM) in [3]; 19.5 µg/mL (≈ 52.6 µM) in [4]; 12.4 µg/mL (≈ 33.5 µM) in [5]. The outcome in assay [6], in [7], in assay [8], in assay [9], in assay [10] and in assay [11] was inactive. Further, the result in assay [12], in assay [13], in assay [14], in assay [15], in assay [16] and in assay [17] was inactive. For the same compound, the outcome in [18], in assay [19], in assay [20], in [21], in [22] and in assay [23] was inactive. For the same compound, the outcome in assay [24], in assay [25], in assay [26], in assay [27] and in [28] was inactive.

Consider `O=C(O)CCC/C=C/C=C/[C@@H]1C=C[C@@H]2CCC[C@H]2[C@H]1/C=C/C=C/C(=O)NCCc1ccccc1` [APLIDIC ACID B], for which the EC50 amounted to 28.4 µg/mL (≈ 61.8 µM) in assay [1]; 13.5 µg/mL (≈ 29.4 µM) in assay [2]; 11.4 µg/mL (≈ 24.8 µM) in assay [3]; 21.6 µg/mL (≈ 47 µM) in assay [4]; 13.5 µg/mL (≈ 29.4 µM) in assay [5].

On to `O=C(O)CCC/C=C/[C@@H]1C=C[C@@H]2CCC[C@H]2[C@H]1/C=C/C=C/C(=O)NCCc1ccccc1` [APLIDIC ACID C], for which the EC50 amounted to 12.3 µg/mL (≈ 28.4 µM) in assay [1]; 14.7 µg/mL (≈ 33.9 µM) in assay [2]; 14.5 µg/mL (≈ 33.4 µM) in assay [3]; 14 µg/mL (≈ 32.3 µM) in assay [4]; 12 µg/mL (≈ 27.7 µM) in assay [5].

`COc1cccc2c1C(=O)c1c(O)c3c(c(O)c1C2=O)C[C@@](O)(C(=O)CO)C[C@@H]3O[C@H]1C[C@H](N)[C@H](O)[C@H](C)O1` [DOXORUBICIN]: the EC50 is 0.001 µg/mL (≈ 0.00184 µM) in assay [1]; 0.003 µg/mL (≈ 0.00552 µM) in assay [2]; 0.001 µg/mL (≈ 0.00184 µM) in assay [3]; 0.029 µg/mL (≈ 0.0534 µM) in assay [4]; 0.071 µg/mL (≈ 0.131 µM) in assay [5].

The values are drawn from ChEMBL document CHEMBL1154318, “Bicyclic alpha,omega-dicarboxylic acid derivatives from a colonial tunicate of the family Polyclinidae” (2009).
